From patent US8999956B2, “N-[(het)arylalkyl)] pyrazole(thio)carboxamides and their heterosubstituted analogues” (Bayer Intellectual Property GmbH, priority 2010, dated 2015) come the findings set out here.

Like-named read-outs stand apart in the source and are kept apart here.

The subject of one data set is Sphaerotheca fuliginea. As to the kind of experiment: In vivo preventive test on Sphaerotheca fuliginea (cucumber). As to conditions: 500 ppm of active ingredient, evaluated 7 days after inoculation. The essentials: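 Young cucumber plants sprayed with compound (in DMF with alkylarylpolyglycolether emulsifier, diluted in water) at the stated application rate. Inoculated one day later with aqueous Sphaerotheca fuliginea spore suspension. Plants then held in greenhouse at approximately 23° C and approximately 70% relative humidity.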

In the next data set the test system is Alternaria solani. Nature of the data set: In vivo preventive test on Alternaria solani (tomato). As to conditions: 500 ppm of active ingredient, evaluated 7 days after inoculation. The essentials:
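Preventive set-up: Alternaria solani spores, as aqueous suspension, applied to young plants one day after spraying. Spray contained active compound formulated with N,N-dimethylformamide and emulsifier, water-diluted to the desired application rate.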

The subject of another data set is Pyrenophora teres. As to the kind of experiment: In vivo preventive test on Pyrenophora teres (barley). As to conditions: 500 ppm of active ingredient, evaluated 7-9 days after inoculation. The essentials: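 Preventive test: young barley plants received a water-diluted spray of compound formulated with DMF solvent plus alkylaryl polyglycol ether emulsifier, at the stated rate. Inoculation with an aqueous spore suspension of Pyrenophora teres followed one day after spraying.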

In another data set the test system is Septoria tritici. Nature of the data set: In vivo preventive test on Septoria tritici (wheat). As to conditions: 500 ppm of active ingredient, evaluated 21 days after inoculation. The method in brief: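 Compound formulated in N,N-dimethylacetamide with alkylaryl polyglycol ether emulsifier and diluted in water to the stated rate. Young wheat plants sprayed preventively; after the deposit dried, they were inoculated with a Septoria tritici spore suspension.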

The subject of data set [1] is Blumeria graminis fsp. hordei. As to the kind of experiment: In vivo preventive test on Blumeria graminis (barley). As to conditions: 500 ppm of active ingredient, evaluated 7 days after inoculation. The method in brief:
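Active compound taken up in N,N-dimethylacetamide with alkylaryl polyglycol ether emulsifier, then diluted in water to the desired concentration. Young barley plants sprayed at the stated application rate; once the coating had dried, plants were dusted with Blumeria graminis f. sp. hordei spores.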

The test system of data set [2] is Fusarium nivale (var. majus). Nature of the data set: In vivo preventive test on Fusarium nivale (wheat). As to conditions: 500 ppm of active ingredient, evaluated 5 days after inoculation. As to the method: Solvent: 49 parts by weight of N,N-dimethylacetamide Emulsifier: 1 part by weight of alkylaryl polyglycol ether To produce a suitable preparation of active compound, 1 part by weight of active compound or active compound combination is mixed with the stated amounts of solvent and emulsifier, and the concentrate is diluted with water to the desired concentration. To test for preventive activity, young plants are sprayed with the preparation of active compound or active compound combination at the stated rate of application. After the spray coating has been dried, the plants are slightly injured by using a sandblast and afterwards they are sprayed with a conidia suspension of Fusarium nivale (var. majus).

Another data set has as its system Leptosphaeria nodorum. Nature of the data set: In vivo preventive test on Leptosphaeria nodorum (wheat). As to conditions: 500 ppm of active ingredient, evaluated 7-9 days after inoculation. The essentials: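 Plants were inoculated with aqueous L. nodorum spores one day after a protective spray. The spray contained the compound at the stated rate, as a water-diluted concentrate in N,N-dimethylacetamide plus alkylaryl polyglycol ether emulsifier.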

The next data set relates to Puccinia triticina. As to the kind of experiment: In vivo preventive test on Puccinia triticina (wheat). As to conditions: Table K, 500 ppm of active ingredient, evaluated 8 days after inoculation.
A further data set relates to Botrytis cinerea. As to the kind of experiment: In vivo preventive test on Botrytis cinerea (beans). As to conditions: Table L, 500 ppm of active ingredient, lesion size 2 days after inoculation. The method in brief: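 Young bean plants sprayed preventively with compound in acetone/dimethylacetamide/emulsifier diluted in water; after drying, each leaf inoculated with 2 agar pieces bearing Botrytis cinerea. Kept dark at 20° C, 100% humidity; lesion size scored at 2 days as % efficacy (0% = untreated, 100% = no disease).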

In the next data set the test system is Cochliobolus miyabeanus. Nature of the data set: In vivo protective test on Cochliobolus miyabeanus (rice). As to conditions: Table M, 250 ppm of active ingredient, evaluated 4 days after inoculation.
The next data set relates to Pyricularia oryzae. As to conditions: in vivo.
In data set [3] the test system is aflatoxines produced by Aspergillus parasiticus. Nature of the data set: microbe, parasite or virus in culture. The data set is classed as cell-based.
The test system of another data set is Aspergillus parasiticus. As to the kind of experiment: microbe, parasite or virus in culture. It is filed as cell-based.
Data set [4] is described as follows: log P by HPLC on reversed-phase column (EEC Directive 79/831 Annex V.A8). The data set is classed as physicochemical. As to the method: In table 1, the log P values were determined in accordance with EEC Directive 79/831 Annex V.A8 by HPLC (High Performance Liquid Chromatography) on a reversed-phase column (C18), using the method described below: Temperature: 40° C.; […]

In another data set the test system is Venturia inaequalis. As to the kind of experiment: In vivo preventive test on Venturia inaequalis (apple scab). As to conditions: 100 ppm of active ingredient, evaluated 10 days after inoculation. The essentials: (§1)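 Young plants sprayed preventively at the stated application rate with compound dissolved in acetone/N,N-dimethylacetamide plus alkylaryl polyglycol ether emulsifier and diluted with water to the desired concentration.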

A further data set has as its system Uromyces appendiculatus. As to the kind of experiment: In vivo preventive test on Uromyces appendiculatus (beans). As to conditions: 100 ppm of active ingredient, evaluated 10 days after inoculation. The method in brief:
as §1

Take `CCCC1CCCCC1NC(=O)c1c(C(F)F)nn(C)c1F` (single isomer, unassigned) [Example 344]: the Efficacy in the data set with Sphaerotheca fuliginea stood at 100%; with Alternaria solani it was 100%; with Pyrenophora teres it was 100%; in the data set on Septoria tritici it was 94%; in [1] it was 100%; in [2], 100%. The Efficacy in the data set on Leptosphaeria nodorum is on record as 90%; in the data set with Puccinia triticina, 100%; in the data set on Botrytis cinerea, 100%; in the data set on Cochliobolus miyabeanus it was 95%; in the data set on Pyricularia oryzae, 95%. For the same compound, the “% Inhibition of Aflatoxin at 50 μM” value in data set [3] is 100%. Moreover, in the data set with Aspergillus parasiticus (50 µM), the “% Inhibition of fungal growth at 50 μM” value was determined as 89%. The logP in data set [4] was determined as 3.61 isomer B.

As to `CC(CCc1c(Cl)cc(Cl)cc1Cl)NC(=O)c1c(C(F)F)nn(C)c1F` (centres unmarked) [Example 215], the Efficacy amounted to 100% in the data set on Sphaerotheca fuliginea; 95% in the data set on Alternaria solani; 100% in the data set on Pyrenophora teres; 90% with Septoria tritici; 100% in data set [1]; 71% in data set [2]. In addition, the Efficacy in the data set on Cochliobolus miyabeanus and in the data set with Pyricularia oryzae was 98% in each case. Besides, the “% Inhibition of Aflatoxin at 50 μM” value in [3] came to 100%. Also, in the data set on Aspergillus parasiticus, the “% Inhibition of fungal growth at 50 μM” value turned out to be 100%. Moreover, the logP in data set [4] was determined as 4.29.

As to `CC(CCc1c(Cl)cc(Cl)cc1Cl)NC(=O)c1c(C(F)F)nn(C)c1Cl` (centres unmarked) [Example 216], the Efficacy turned out to be 100% in the data set on Sphaerotheca fuliginea; 100% with Pyrenophora teres; 100% with Septoria tritici; 93% in data set [2]; 78% in the data set with Puccinia triticina; 90% in the data set on Cochliobolus miyabeanus. The compound also had an Efficacy in the data set with Pyricularia oryzae of 95%. Moreover, the “% Inhibition of Aflatoxin at 50 μM” value in data set [3] came to 100%. Besides, in the data set on Aspergillus parasiticus, the “% Inhibition of fungal growth at 50 μM” value is recorded as 100%. Further, the logP in data set [4] turned out to be 4.53.

In the case of `CCCCC1CCCCC1NC(=O)c1c(C(F)F)nn(C)c1F` (single isomer, unassigned) [Example 330], the Efficacy was 88% in the data set with Sphaerotheca fuliginea; 95% in the data set with Alternaria solani; 100% in the data set on Pyrenophora teres; 78% in the data set on Septoria tritici; 100% in [1]; 100% in [2]. For the same compound, the Efficacy in the data set on Puccinia triticina turned out to be 80%; in the data set with Cochliobolus miyabeanus, 85%; in the data set with Pyricularia oryzae, 80%. In data set [3], the “% Inhibition of Aflatoxin at 50 μM” value is given as 100%. In addition, the “% Inhibition of fungal growth at 50 μM” value in the data set on Aspergillus parasiticus (50 µM) was 87%. In [4], this compound showed a logP of 4.06 isomer B.

Regarding `CCCCC1CCCC1NC(=O)c1c(C(F)F)nn(C)c1F` (centres unmarked) [Example 306], the Efficacy in the data set on Sphaerotheca fuliginea came out at 95%; in the data set with Alternaria solani, 100%; in the data set with Pyrenophora teres, 100%; with Venturia inaequalis it was 99%; in data set [1], 100%; in [2], 100%. Also, the Efficacy in the data set on Uromyces appendiculatus turned out to be 70%; in the data set on Puccinia triticina it was 95%; in the data set with Botrytis cinerea it was 94%; in the data set with Cochliobolus miyabeanus it was 95%; with Pyricularia oryzae, 95%. The “% Inhibition of Aflatoxin at 50 μM” value in data set [3] is listed as 100%. In addition, the “% Inhibition of fungal growth at 50 μM” value in the data set with Aspergillus parasiticus is given as 100%. The same compound returned a logP in data set [4] of 3.59.

In the case of `CON(C(=O)c1c(C(F)F)nn(C)c1F)C(C)CCc1c(Cl)cc(Cl)cc1Cl` (centres unmarked) [Example 217], the Efficacy (in the data set on Sphaerotheca fuliginea; in the data set on Pyrenophora teres; in the data set on Venturia inaequalis; in the data set on Septoria tritici; in data set [1]; in data set [2]) was 100% in each case. For the same compound, the Efficacy in the data set on Leptosphaeria nodorum was 78%; with Puccinia triticina, 89%; with Cochliobolus miyabeanus, 98%; with Pyricularia oryzae, 97%. Moreover, in data set [3], the “% Inhibition of Aflatoxin at 50 μM” value came to 100%. Also, the “% Inhibition of fungal growth at 50 μM” value in the data set with Aspergillus parasiticus was found to be 100%. For the same compound, in data set [4], the logP was determined as 4.77.
